Source: PMC9945182 (Chemical Research in Toxicology, 2023)
Like-named read-outs stand apart in the source and are kept apart here.

Legend:
UGT1A4 = molecular target: T1, UGT1A4 (Homo sapiens, UniProt P22310); format: biochemical; conditions: UGT1A4 microsomes; nicotine or cotinine as substrate; screening
T1 sequence (P22310 29-534): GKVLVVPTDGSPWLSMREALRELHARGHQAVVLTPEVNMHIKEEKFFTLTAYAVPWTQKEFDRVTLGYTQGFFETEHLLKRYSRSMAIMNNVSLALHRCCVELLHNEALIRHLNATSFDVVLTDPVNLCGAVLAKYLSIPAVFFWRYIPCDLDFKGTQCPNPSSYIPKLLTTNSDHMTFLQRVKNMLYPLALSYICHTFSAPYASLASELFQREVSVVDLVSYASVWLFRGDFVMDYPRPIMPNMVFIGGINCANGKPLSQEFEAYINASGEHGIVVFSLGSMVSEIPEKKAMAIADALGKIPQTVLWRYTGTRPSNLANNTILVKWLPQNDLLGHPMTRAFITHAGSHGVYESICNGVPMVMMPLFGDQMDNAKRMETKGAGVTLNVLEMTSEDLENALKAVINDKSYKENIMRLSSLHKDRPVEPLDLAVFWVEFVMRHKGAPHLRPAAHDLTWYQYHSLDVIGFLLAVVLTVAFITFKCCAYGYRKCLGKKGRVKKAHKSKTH

[1] = system: human liver microsomes (HLM); experiment: Inhibition of nicotine to nornicotine formation in pooled human liver microsomes; format: biochemical; conditions: nicotine 500 μM
[2] = system: human liver microsomes (HLM); experiment: Inhibition of cotinine to 3HC formation in pooled human liver microsomes; format: biochemical; conditions: cotinine 900 μM
CYP2B6 = molecular target: T2, CYP2B6 (Homo sapiens, UniProt P20813); format: biochemical; conditions: for inhibition of nornicotine formation: nicotine substrate, CYP2B6 microsomes
T2 sequence (P20813 1-491): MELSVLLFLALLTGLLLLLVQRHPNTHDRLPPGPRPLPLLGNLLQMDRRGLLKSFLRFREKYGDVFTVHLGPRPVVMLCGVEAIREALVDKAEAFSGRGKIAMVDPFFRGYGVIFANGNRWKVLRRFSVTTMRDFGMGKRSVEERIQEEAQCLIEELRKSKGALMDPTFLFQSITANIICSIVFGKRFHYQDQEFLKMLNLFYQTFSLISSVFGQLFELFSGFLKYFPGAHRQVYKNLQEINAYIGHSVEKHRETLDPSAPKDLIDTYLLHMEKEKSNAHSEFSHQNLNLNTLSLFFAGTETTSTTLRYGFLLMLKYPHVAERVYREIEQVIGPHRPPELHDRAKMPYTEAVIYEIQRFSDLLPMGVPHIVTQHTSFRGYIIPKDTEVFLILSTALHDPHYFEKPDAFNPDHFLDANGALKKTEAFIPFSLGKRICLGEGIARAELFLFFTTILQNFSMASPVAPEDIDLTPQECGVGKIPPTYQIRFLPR

[3] = cited from earlier work; for physiological levels in the plasma corrected for plasma protein binding: after a single clinical dose of CBD
[4] = system: human liver microsomes (HLM); experiment: Inhibition of nicotine to cotinine formation in pooled human liver microsomes; format: biochemical; conditions: nicotine 500 μM
CYP2A6 [5] = molecular target: T3, CYP2A6 (Homo sapiens, UniProt P11509); format: biochemical; conditions: for inhibition of cotinine formation: nicotine substrate, CYP2A6 microsomes, vs 100% activity control; for IC50: nicotine 100 μM, rec CYP2A6 microsomes
T3 sequence (P11509 1-494): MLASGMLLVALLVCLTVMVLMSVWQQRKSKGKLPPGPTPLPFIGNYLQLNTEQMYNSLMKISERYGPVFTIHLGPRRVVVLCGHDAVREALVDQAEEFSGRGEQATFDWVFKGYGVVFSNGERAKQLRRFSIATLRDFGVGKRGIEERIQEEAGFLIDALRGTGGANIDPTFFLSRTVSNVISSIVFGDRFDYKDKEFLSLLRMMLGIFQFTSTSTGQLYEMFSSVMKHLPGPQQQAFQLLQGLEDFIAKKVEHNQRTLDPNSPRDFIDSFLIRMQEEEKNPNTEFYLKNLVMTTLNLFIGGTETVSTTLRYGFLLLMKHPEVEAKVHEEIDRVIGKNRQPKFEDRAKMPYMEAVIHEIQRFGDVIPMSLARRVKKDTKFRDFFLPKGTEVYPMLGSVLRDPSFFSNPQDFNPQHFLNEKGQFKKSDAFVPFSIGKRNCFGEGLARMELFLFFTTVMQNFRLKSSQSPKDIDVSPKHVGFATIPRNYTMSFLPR

CYP2A6 [6] = molecular target: T3, CYP2A6; format: biochemical; conditions: for inhibition of nornicotine formation: nicotine substrate, CYP2A6 microsomes; for IC50: nicotine 50 μM, rec CYP2A6 microsomes
FMO1 = molecular target: T4, FMO1 (Homo sapiens, UniProt Q01740); format: biochemical; conditions: 1 or 10 μM cannabinoid; nicotine 1 mM; FMO1 microsomes
T4 sequence (Q01740 1-532): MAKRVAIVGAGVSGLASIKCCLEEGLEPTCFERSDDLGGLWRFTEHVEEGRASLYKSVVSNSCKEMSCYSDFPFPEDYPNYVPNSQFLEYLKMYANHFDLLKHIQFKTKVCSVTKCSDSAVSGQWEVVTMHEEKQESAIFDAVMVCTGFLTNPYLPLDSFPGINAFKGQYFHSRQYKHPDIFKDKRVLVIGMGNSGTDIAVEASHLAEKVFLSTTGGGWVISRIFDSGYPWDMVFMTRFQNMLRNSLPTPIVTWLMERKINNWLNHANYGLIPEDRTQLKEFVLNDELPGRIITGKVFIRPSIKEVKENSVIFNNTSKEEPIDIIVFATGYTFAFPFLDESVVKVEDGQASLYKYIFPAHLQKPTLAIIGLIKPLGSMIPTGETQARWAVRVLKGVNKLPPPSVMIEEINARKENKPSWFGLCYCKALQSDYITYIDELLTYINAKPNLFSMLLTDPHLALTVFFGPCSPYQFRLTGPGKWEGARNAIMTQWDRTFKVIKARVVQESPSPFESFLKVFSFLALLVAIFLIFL

[7] = single dose regimen of Epidiolex (6000 mg)
[8] = human, microsomes from CYP2B6-overexpressing HEK293 cells, pH 7.4, probe nicotine (nornicotine formation)

## C=C(C)[C@@H]1CCC(CO)=C[C@H]1c1c(O)cc(CCCCC)cc1O [7-OH-CBD, 7-hydroxy-cannabidiol]
UGT1A4
  inhibition of nicotine-Gluc or cotinine-Gluc formation: no significant inhibition
[1]
  IC50: 7.9 ± 2.5 µM
[2]
  IC50: 9.1 ± 3.4 µM
CYP2B6; 1 μM inhibitor
  inhibition of nornicotine formation: 64%
CYP2B6; 10 μM inhibitor
  inhibition of nornicotine formation: 72%
CYP2B6; nornicotine formation, nicotine 100 μM, rec CYP2B6 microsomes
  IC50: 1.4 ± 0.4 µM
CYP2B6; read-out: IC50,u (binding-corrected IC50), nornicotine formation, nicotine 100 μM, rec CYP2B6 microsomes, IC50 × fu,inc
  IC50: 0.11 ± 0.03 µM
[3]
  physiological levels in the plasma corrected for plasma protein binding: 0.04–0.09 μM
[3]; [7]
  calculated unbound plasma Cmax: 93.6 nM
[4]
  IC50: 21 ± 5.2 µM
CYP2A6 [5]; 1 μM inhibitor
  inhibition of cotinine formation: 50%
CYP2A6 [5]; 10 μM inhibitor
  inhibition of cotinine formation: 75%
CYP2A6 [5]; cotinine formation, mean ± SD of three experiments
  IC50: 5.8 ± 2.3 µM
CYP2A6 [5]; read-out: IC50,u (binding-corrected IC50), cotinine formation, IC50 × fu,inc
  IC50: 0.45 ± 0.18 µM
CYP2A6 [6]; 1 μM inhibitor
  inhibition of nornicotine formation: 55%
CYP2A6 [6]; 10 μM inhibitor
  inhibition of nornicotine formation: 70%
CYP2A6 [6]; nornicotine formation
  IC50: 2.1 ± 0.97 µM
CYP2A6 [6]; read-out: IC50,u (binding-corrected IC50), nornicotine formation, IC50 × fu,inc
  IC50: 0.16 ± 0.08 µM
FMO1
  inhibitory effect on NOX formation: No inhibitory effect

## C=C(C)[C@@H]1CCC(C)=C[C@H]1c1c(O)cc(CCCCC)cc1O [CBD, cannabidiol]
UGT1A4
  inhibition of nicotine-Gluc or cotinine-Gluc formation: no significant inhibition
[1]
  IC50: 5.1 ± 1.1 µM
[2]
  IC50: 8.8 ± 1.3 µM
CYP2B6; IC50, nornicotine formation, nicotine 100 μM, rec CYP2B6 microsomes
  IC50: 0.47 ± 0.077 µM
CYP2B6; IC50,u (binding-corrected IC50), nornicotine formation, nicotine 100 μM, rec CYP2B6 microsomes, IC50 × fu,inc
  IC50: 0.029 ± 0.005 µM
CYP2B6; human, microsomes from CYP2B6-overexpressing HEK293 cells, pH 7.4, probe nicotine 100 μM (nornicotine formation), IC50,u (binding-corrected IC50), nornicotine formation, nicotine 100 μM, rec CYP2B6 microsomes, IC50 × fu,inc
  IC50 at 30 min: 0.03 ± 0.005 µM
CYP2B6; [8]
  inhibition at 30 min, 1 µM: 75%
  inhibition at 30 min, 10 µM: 85%
[3]
  physiological levels in the plasma corrected for plasma protein binding: 0.06–0.15 μM
[3]; read-out: plasma Cmax (maximum concentration), total, single dose regimen of Epidiolex (6000 mg)
  Cmax: 2500 nM
[3]; [7]
  calculated unbound plasma Cmax: 75 nM
[4]
  IC50: 10 ± 2.9 µM
CYP2A6 [5]; IC50, cotinine formation, mean ± SD of three experiments
  IC50: 4.4 ± 1 µM
CYP2A6 [5]; IC50,u (binding-corrected IC50), cotinine formation, IC50 × fu,inc
  IC50: 0.27 ± 0.06 µM
CYP2A6 [6]; IC50, nornicotine formation
  IC50: 3.7 ± 2.2 µM
CYP2A6 [6]; IC50,u (binding-corrected IC50), nornicotine formation, IC50 × fu,inc
  IC50: 0.23 ± 0.14 µM
FMO1
  inhibitory effect on NOX formation: No inhibitory effect
